# Experimental data taken from PubChem BioAssay AID2060506 (Molecular Pharmacology Branch, DTP, NCI, 2025).
# System: 598228-144-R-J1-PDC complex spheroid viability
# Test: Anticancer human tumor 598228-144-R-J1-PDC patient-derived serous endometrial adenocarcinoma cell line growth inhibition [GQUAD]
# Conditions: for IC50: curve of first compound; for viability, T/C: stronger effect = lower value
# How it was run: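 Tumor cells were grown as complex spheroids with HUVEC endothelial cells and mesenchymal stem cells as stroma. G-quadruplex stabilizers were combined with targeted agents over half-log dilutions from near the clinical Cmax, or from 10 microM.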
# [1] = second compound 0.0316 µM, first compound 0.0316 µM
# [2] = second compound 0.0316 µM, first compound 0.1 µM
# [3] = second compound 0.0316 µM, first compound 0.316 µM
# [4] = second compound 0.0316 µM, first compound 1 µM
# [5] = second compound 0.0316 µM, first compound 3.16 µM
# [6] = second compound 0.0316 µM, first compound 10 µM
# [7] = second compound 0.1 µM, first compound 0.0316 µM
# [8] = second compound 0.1 µM, first compound 0.1 µM
# [9] = second compound 0.1 µM, first compound 0.316 µM
# [10] = second compound 0.1 µM, first compound 1 µM
# [11] = second compound 0.1 µM, first compound 3.16 µM
# [12] = second compound 0.1 µM, first compound 10 µM
# [13] = second compound 0.316 µM, first compound 0.0316 µM
# [14] = second compound 0.316 µM, first compound 0.1 µM
# [15] = second compound 0.316 µM, first compound 0.316 µM
# [16] = second compound 0.316 µM, first compound 1 µM
# [17] = second compound 0.316 µM, first compound 3.16 µM
# [18] = second compound 0.316 µM, first compound 10 µM
# [19] = second compound 1 µM, first compound 0.0316 µM
# [20] = second compound 1 µM, first compound 0.1 µM
# [21] = second compound 1 µM, first compound 0.316 µM
# [22] = second compound 1 µM, first compound 1 µM
# [23] = second compound 1 µM, first compound 3.16 µM
# [24] = second compound 1 µM, first compound 10 µM
# [25] = second compound 3.16 µM, first compound 0.0316 µM
# [26] = second compound 3.16 µM, first compound 0.1 µM
# [27] = second compound 3.16 µM, first compound 0.316 µM
# [28] = second compound 3.16 µM, first compound 1 µM
# [29] = second compound 3.16 µM, first compound 3.16 µM
# [30] = second compound 3.16 µM, first compound 10 µM
# [31] = second compound 10 µM, first compound 0.0316 µM
# [32] = second compound 10 µM, first compound 0.1 µM
# [33] = second compound 10 µM, first compound 0.316 µM
# [34] = second compound 10 µM, first compound 1 µM
# [35] = second compound 10 µM, first compound 3.16 µM
# [36] = second compound 10 µM, first compound 10 µM
# 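Further: spheroids exposed to the agents for one week before reading.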
# 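Wherever viability, T/C is given: percent of vehicle DMSO control viability so 100% = untreated growth.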
compound,measurement,setting,value
CC1COCCN1c1cc(C2(O)CC3CCC(C2)O3)c2cnn(-c3ccn[nH]3)c2n1 (stereo not drawn) + Cc1cnc(CNC(=O)c2c(=O)c3ccc(N4CCCN(C)CC4)nc3n3c2sc2ccccc23)cn1,IC50,second compound 0.0316 µM,0.0425 µM
same,IC50,second compound 0.1 µM,< 0.0316 µM
same,IC50,second compound 0.316 µM,< 0.0316 µM
same,IC50,second compound 1 µM,< 0.0316 µM
same,IC50,second compound 3.16 µM,< 0.0316 µM
same,IC50,second compound 10 µM,< 0.0316 µM
same,"viability, T/C",[1],59.9%
same,"viability, T/C",[2],31.8%
same,"viability, T/C",[3],35.8%
same,"viability, T/C",[4],36.6%
same,"viability, T/C",[5],22.5%
same,"viability, T/C",[6],9.67%
same,"viability, T/C",[7],46%
same,"viability, T/C",[8],38%
same,"viability, T/C",[9],32.8%
same,"viability, T/C",[10],34.7%
same,"viability, T/C",[11],19.8%
same,"viability, T/C",[12],9.84%
same,"viability, T/C",[13],41%
same,"viability, T/C",[14],39.7%
same,"viability, T/C",[15],33%
same,"viability, T/C",[16],36.4%
same,"viability, T/C",[17],20.9%
same,"viability, T/C",[18],7.21%
same,"viability, T/C",[19],44.6%
same,"viability, T/C",[20],41.9%
same,"viability, T/C",[21],35.9%
same,"viability, T/C",[22],24%
same,"viability, T/C",[23],12.7%
same,"viability, T/C",[24],4.57%
same,"viability, T/C",[25],34.8%
same,"viability, T/C",[26],37.9%
same,"viability, T/C",[27],25.5%
same,"viability, T/C",[28],7.29%
same,"viability, T/C",[29],0.25%
same,"viability, T/C",[30],0.64%
same,"viability, T/C",[31],14.6%
same,"viability, T/C",[32],0.4%
same,"viability, T/C",[33],0.37%
same,"viability, T/C",[34],0.29%
same,"viability, T/C",[35],0.34%
same,"viability, T/C",[36],0.24%
Cc1cccc(N(C)C(=O)C2C(O)CCN2c2nc(C)cc(C(F)(F)F)c2C#N)c1 (stereo not drawn) + CN(C)c1ccc(Nc2c3ccc(NC(=O)CCN4CCCC4)cc3nc3cc(NC(=O)CCN4CCCC4)ccc23)cc1,IC50,second compound 0.0316 µM,> 10 µM
same,IC50,second compound 0.1 µM,> 10 µM
same,IC50,second compound 0.316 µM,> 10 µM
same,IC50,second compound 1 µM,> 10 µM
same,IC50,second compound 3.16 µM,> 10 µM
same,IC50,second compound 10 µM,3.95 µM
same,"viability, T/C",[1],114%
same,"viability, T/C",[2],96.9%
same,"viability, T/C",[3],98.3%
same,"viability, T/C",[4],105%
same,"viability, T/C",[5],91.5%
same,"viability, T/C",[6],103%
same,"viability, T/C",[7],103%
same,"viability, T/C",[8],107%
same,"viability, T/C",[9],107%
same,"viability, T/C",[10],108%
same,"viability, T/C",[11],103%
same,"viability, T/C",[12],84.9%
same,"viability, T/C",[13],94%
same,"viability, T/C",[14],124%
same,"viability, T/C",[15],100%
same,"viability, T/C",[16],125%
same,"viability, T/C",[17],118%
same,"viability, T/C",[18],113%
same,"viability, T/C",[19],98.5%
same,"viability, T/C",[20],114%
same,"viability, T/C",[21],106%
same,"viability, T/C",[22],101%
same,"viability, T/C",[23],106%
same,"viability, T/C",[24],111%
same,"viability, T/C",[25],114%
same,"viability, T/C",[26],106%
same,"viability, T/C",[27],106%
same,"viability, T/C",[28],95.2%
same,"viability, T/C",[29],108%
same,"viability, T/C",[30],86.4%
same,"viability, T/C",[31],96.6%
same,"viability, T/C",[32],78.7%
same,"viability, T/C",[33],107%
same,"viability, T/C",[34],86.5%
same,"viability, T/C",[35],55.2%
same,"viability, T/C",[36],29.1%
CC1COCCN1c1cc(C2(S(C)(=N)=O)CC2)nc(-c2ccnc3[nH]ccc23)n1 (stereo not drawn) + Cc1cnc(CNC(=O)c2c(=O)c3ccc(N4CCCN(C)CC4)nc3n3c2sc2ccccc23)cn1,IC50,second compound 0.0316 µM,6.99 µM
same,IC50,second compound 0.1 µM,3.71 µM
same,IC50,second compound 0.316 µM,2.91 µM
same,IC50,second compound 1 µM,3.27 µM
same,IC50,second compound 3.16 µM,< 0.0316 µM
same,IC50,second compound 10 µM,< 0.0316 µM
same,"viability, T/C",[1],79.9%
same,"viability, T/C",[2],93.9%
same,"viability, T/C",[3],71.1%
same,"viability, T/C",[4],62.4%
same,"viability, T/C",[5],87.8%
same,"viability, T/C",[6],36.9%
same,"viability, T/C",[7],74%
same,"viability, T/C",[8],61.2%
same,"viability, T/C",[9],72.7%
same,"viability, T/C",[10],68.7%
same,"viability, T/C",[11],53.1%
same,"viability, T/C",[12],30.2%
same,"viability, T/C",[13],83.1%
same,"viability, T/C",[14],63.8%
same,"viability, T/C",[15],62.8%
same,"viability, T/C",[16],55.9%
same,"viability, T/C",[17],57.8%
same,"viability, T/C",[18],38.1%
same,"viability, T/C",[19],65.2%
same,"viability, T/C",[20],57.2%
same,"viability, T/C",[21],58.7%
same,"viability, T/C",[22],60.9%
same,"viability, T/C",[23],49.3%
same,"viability, T/C",[24],32.4%
same,"viability, T/C",[25],48.8%
same,"viability, T/C",[26],49.9%
same,"viability, T/C",[27],51.8%
same,"viability, T/C",[28],39.9%
same,"viability, T/C",[29],49.2%
same,"viability, T/C",[30],26.4%
same,"viability, T/C",[31],41.7%
same,"viability, T/C",[32],30.1%
same,"viability, T/C",[33],34.1%
same,"viability, T/C",[34],15.1%
same,"viability, T/C",[35],33.7%
same,"viability, T/C",[36],6%
CC(C)(O)C1CCC(Nc2ccc3ncc(-c4cccc(C(F)(F)F)c4)n3n2)CC1 (stereo not drawn) + Cc1[nH]c2ccc(F)cc2c1-c1nc2c3cccnc3c3ncccc3c2[nH]1,IC50,second compound 0.0316 µM,2.4 µM
same,IC50,second compound 0.1 µM,2.37 µM
same,IC50,second compound 0.316 µM,2.24 µM
same,IC50,second compound 1 µM,1.29 µM
same,IC50,second compound 3.16 µM,< 0.0316 µM
same,IC50,second compound 10 µM,1.33 µM
same,"viability, T/C",[1],106%
same,"viability, T/C",[2],112%
same,"viability, T/C",[3],109%
same,"viability, T/C",[4],86.5%
same,"viability, T/C",[5],38.8%
same,"viability, T/C",[6],30.7%
same,"viability, T/C",[7],133%
same,"viability, T/C",[8],121%
same,"viability, T/C",[9],103%
same,"viability, T/C",[10],95.3%
same,"viability, T/C",[11],32.2%
same,"viability, T/C",[12],30.1%
same,"viability, T/C",[13],77.5%
same,"viability, T/C",[14],85.5%
same,"viability, T/C",[15],81.3%
same,"viability, T/C",[16],93.8%
same,"viability, T/C",[17],35.2%
same,"viability, T/C",[18],26.3%
same,"viability, T/C",[19],58.7%
same,"viability, T/C",[20],67%
same,"viability, T/C",[21],57.5%
same,"viability, T/C",[22],55.8%
same,"viability, T/C",[23],30.6%
same,"viability, T/C",[24],24%
same,"viability, T/C",[25],30.7%
same,"viability, T/C",[26],40.9%
same,"viability, T/C",[27],38.8%
same,"viability, T/C",[28],39.7%
same,"viability, T/C",[29],23.1%
same,"viability, T/C",[30],27.7%
same,"viability, T/C",[31],76.4%
same,"viability, T/C",[32],52.6%
same,"viability, T/C",[33],63.2%
same,"viability, T/C",[34],57.2%
same,"viability, T/C",[35],25.9%
same,"viability, T/C",[36],30.7%
